Reference: patent US11286268B1, “EIF4E-inhibiting compounds and methods” (EFFECTOR THERAPEUTICS, INC., priority 2019, dated 2022)
Where two headings read alike, the source gives them in different places.

Molecular target: recombinant eIF4E (Homo sapiens (Human), UniProt P06730)
Test: Fluorescence polarization competition assay for eIF4E binding potency
Method in brief: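 FP readout; IC50 fit from 8-point, 3-fold series. 75 nM eIF4E + 20 nM ATTO-550-labelled m7GDP probe, Tris pH 7.5/NaCl/DTT/Tween buffer, 1% DMSO final. 30 min RT equilibration, light-protected.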

[1] = fluorescence polarization competition, 75 nM recombinant eIF4E, 20 nM EDA-m7GDP-ATTO-550, IC50 class, read-out: elF4E FP
[2] = inhibition of eIF4E/EDA-m7GDP-ATTO-550 binding by 50%, Table 4B calculated values, read-out: IC50

Chain of recombinant eIF4E (P06730 whole entry): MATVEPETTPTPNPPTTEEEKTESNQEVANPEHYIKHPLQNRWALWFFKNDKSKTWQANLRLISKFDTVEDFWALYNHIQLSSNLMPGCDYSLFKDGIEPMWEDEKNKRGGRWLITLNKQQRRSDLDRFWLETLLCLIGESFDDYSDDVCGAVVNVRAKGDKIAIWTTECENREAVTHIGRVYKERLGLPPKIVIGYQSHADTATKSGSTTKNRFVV

Row | Structure (SMILES) | IC50 [1] | IC50 [2]
1 | Cc1nc2cc(C(F)(F)F)c(N3CCN(C)CC3)c(C#N)c2c(=O)n1CCOc1ccc(Cl)cc1 [compound 808] | 50 to 1000 nM | 52.4 nM
2 | Cc1cc(-c2cc(Cl)ccc2OCCn2c(C)nc3ccc(N4CCN(C)CC4)cc3c2=O)c2scc(C(=O)O)c2n1 [compound 811] | 50 to 1000 nM | 
3 | Cc1nc2cc(C(F)(F)F)c(N3CCN(C)CC3)c(C#N)c2c(=O)n1CCOc1ccc(Cl)cc1-c1ccccc1 [compound 833] | 50 to 1000 nM | 111 nM
4 | Cc1nc2cncc(OCCN(C)C)c2c(=O)n1CCOc1ccc(Cl)cc1-c1ccnc2c(C(=O)O)csc12 [compound 841] | 50 to 1000 nM | > 1000 nM
5 | Cc1nc2cnc(N3CCN(CCCC(F)(F)F)CC3)c(C#N)c2c(=O)n1CCOc1ccc(Cl)cc1-c1ccnc2c(C(=O)O)csc12 [compound 844] | < 50 nM | 23.3 nM
6 | Cc1nc2cnc(N3CCN(C(C)(C)CC(F)(F)F)CC3)c(C#N)c2c(=O)n1CCOc1ccc(Cl)cc1-c1ccnc2c(C(=O)O)csc12 [compound 845] | < 50 nM | 12.7 nM
7 | Cc1cc(-c2cc(Cl)ccc2OCCn2c(C)nc3cnc(OC4CN(C)C4)c(C#N)c3c2=O)c2sc(C)c(C(=O)O)c2n1 [compound 846] | < 50 nM | 37.9 nM
8 | Cc1ncc(F)cc1-c1c(C(F)(F)F)cc2nc(C)n(CCOc3ccc(Cl)cc3-c3ccnc4c(C(=O)O)csc34)c(=O)c2c1C#N [compound 847] | < 50 nM | 44 nM
9 | Cc1cc(-c2cc(Cl)ccc2OCCn2c(C)nc3cnc(N(C)C4CCN(C)CC4)c(C#N)c3c2=O)c2sc(C)c(C(=O)O)c2n1 [compound 848] | < 50 nM | 26.9 nM
10 | Cc1cc(-c2cc(Cl)ccc2OCCn2c(C)nc3nc(C(F)(F)F)c(N4CCN(C)CC4)cc3c2=O)c2scc(C(=O)O)c2n1 [compound 849] | < 50 nM | 14.5 nM
11 | CCc1nc(C)c2nc(C)n(CCOc3ccc(Cl)cc3-c3cc(C)nc4c(C(=O)O)csc34)c(=O)c2c1C#N [compound 850] | < 50 nM | 17.7 nM
12 | CCc1nc(C)c2nc(C)n(CCOc3ccc(Cl)cc3-c3ccnc4c(C(=O)O)csc34)c(=O)c2c1C#N [compound 851] | < 50 nM | 6.02 nM
13 | Cc1nc2cc(C(F)(F)F)c(N3CCN(CCO)CC3)c(C#N)c2c(=O)n1CCOc1ccc(Cl)cc1-c1ccnc2ccsc12 [compound 852] | < 50 nM | 21.4 nM
14 | Cc1nc2cc(C(F)(F)F)c(OCCN3CCNCC3)c(C#N)c2c(=O)n1CCOc1ccc(Cl)cc1-c1ccnc2ccsc12 [compound 853] | < 50 nM | 31.9 nM
15 | Cc1nc2cnc(N(C)C3CCN(C)CC3)c(C#N)c2c(=O)n1CCOc1ccc(Cl)cc1-c1ccnc2c(C(=O)O)csc12 [compound 854] | < 50 nM | 11.9 nM
16 | Cc1nc2cc(C(F)(F)F)c(N3CCNCC3)c(C#N)c2c(=O)n1CCOc1ccc(Cl)cc1-c1ccnc2ccsc12 [compound 855] | < 50 nM | 4.77 nM
17 | Cc1cc(-c2cc(Cl)ccc2C#CCn2c(C)nc3cc(C(F)(F)F)c(N4CCN(CCO)CC4)c(C#N)c3c2=O)c2scc(C(=O)O)c2n1 [compound 856] | < 50 nM | 13.7 nM
18 | Cc1nc2c(N3C4CCC3CN(C)C4)ncc(C#N)c2c(=O)n1CCOc1ccc(Cl)cc1-c1ccnc2c(C(=O)O)csc12 [compound 857] | < 50 nM | 4.62 nM
19 | Cc1nc2cc(C(F)(F)F)c(CCN(C)C)cc2c(=O)n1CCOc1ccc(Cl)cc1-c1ccnc2c(C(=O)O)csc12 [compound 858] | < 50 nM | 7.28 nM
20 | Cc1nc2cc(C(F)(F)F)c(N3CCN(CCO)CC3)c(C#N)c2c(=O)n1CC#Cc1ccc(Cl)cc1-c1ccnc2c(C(=O)O)csc12 [compound 859] | < 50 nM | 5.59 nM
21 | Cc1nc2cnc(N3CCN(CC(F)(F)F)CC3)c(C#N)c2c(=O)n1CC#Cc1ccc(Cl)cc1-c1ccnc2c(C(=O)O)csc12 [compound 860] | < 50 nM | 10.3 nM

Next, values leading:

Row | IC50 [1] | IC50 [2] | Structure (SMILES)
22 | < 50 nM |  | Cc1cc(-c2cc(Cl)ccc2OCCn2c(C)nc3cnc(C4CC4(F)F)c(C#N)c3c2=O)c2scc(C(=O)O)c2n1 (centres unmarked) [compound 807]
23 | < 50 nM | 16 nM | C=Cc1ncc2nc(C)n(CCOc3ccc(Cl)cc3-c3cc(C)nc4c(C(=O)O)csc34)c(=O)c2c1C#N [compound 809]
24 | < 50 nM |  | Cc1cc(-c2cc(Cl)ccc2OCCn2c(C)nc3cnc(N4CCN(C)CC4)cc3c2=O)c2scc(C(=O)O)c2n1 [compound 810]
25 | < 50 nM | 30 nM | Cc1cc(-c2cc(Cl)ccc2OCCn2c(C)nc3ccc(N4CCN(C)CC4)c(C#N)c3c2=O)c2sc(C)c(C(=O)O)c2n1 [compound 812]
26 | < 50 nM | 4.04 nM | CCc1ncc2nc(C)n(CCOc3ccc(Cl)cc3-c3ccnc4c(C(=O)O)csc34)c(=O)c2c1C#N [compound 813]
27 | < 50 nM | 3.31 nM | Cc1nc2cnc(N3CCN(C)C(C)(C)C3)c(C#N)c2c(=O)n1CCOc1ccc(Cl)cc1-c1ccnc2c(C(=O)O)csc12 [compound 815]
28 | < 50 nM | 6.87 nM | Cc1nc2c(N3CCN(C)CC3(C)C)ncc(C#N)c2c(=O)n1CCOc1ccc(Cl)cc1-c1ccnc2c(C(=O)O)csc12 [compound 816]
29 | < 50 nM |  | Cc1nc2c(N3CCN(CCF)C4CC43)ncc(C#N)c2c(=O)n1CCOc1ccc(Cl)cc1-c1ccnc2c(C(=O)O)csc12 (centres unmarked) [compound 817]
30 | < 50 nM | 13.1 nM | Cc1nc2c(N3CCN(CC(F)F)C4CC43)ncc(C#N)c2c(=O)n1CCOc1ccc(Cl)cc1-c1ccnc2c(C(=O)O)csc12 (centres unmarked) [compound 818]
31 | < 50 nM | 28.2 nM | Cc1nc2cnc(OC3CCNCC3)c(C#N)c2c(=O)n1CCOc1ccc(Cl)cc1-c1ccnc2c(C(=O)O)csc12 [compound 819]
32 | < 50 nM | 13.6 nM | Cc1nc2cnc(OC3CCN(CC(F)(F)F)CC3)c(C#N)c2c(=O)n1CCOc1ccc(Cl)cc1-c1ccnc2c(C(=O)O)csc12 [compound 820]
33 | < 50 nM | 14.2 nM | Cc1nc2cnc(S(=O)(=O)N3CCN(C)CC3)c(C#N)c2c(=O)n1CCOc1ccc(Cl)cc1-c1ccnc2c(C(=O)O)csc12 [compound 821]
34 | < 50 nM | 10.7 nM | Cc1nc2cnc(N3CC4(C3)CN(C3CC3)C4)c(C#N)c2c(=O)n1CC#Cc1ccc(Cl)cc1-c1ccnc2c(C(=O)O)csc12 [compound 822]
35 | < 50 nM | 11.5 nM | Cc1nc2cnc(N3CC4(C3)CN(C(C)(C)C(F)F)C4)c(C#N)c2c(=O)n1CCOc1ccc(Cl)cc1-c1ccnc2c(C(=O)O)csc12 [compound 823]
36 | < 50 nM | 13.6 nM | Cc1nc2cnc(N3CCN(CC(F)F)C4CC43)c(C#N)c2c(=O)n1CCOc1ccc(Cl)cc1-c1ccnc2c(C(=O)O)csc12 (centres unmarked) [compound 824]
37 | < 50 nM | 14.3 nM | Cc1nc2cnc(N3CC4(C3)CN(C3(CF)CC3)C4)c(C#N)c2c(=O)n1CCOc1ccc(Cl)cc1-c1ccnc2c(C(=O)O)csc12 [compound 825]
38 | < 50 nM | 5.72 nM | Cc1nc2cnc(N(C)C3CC4(C3)CN(CC(F)(F)F)C4)c(C#N)c2c(=O)n1CC#Cc1ccc(Cl)cc1-c1ccnc2c(C(=O)O)csc12 [compound 827]
39 | < 50 nM | 5.72 nM | Cc1nc2cnc(N(C)C3CC4(C3)CN(C(C)(C)CF)C4)c(C#N)c2c(=O)n1CC#Cc1ccc(Cl)cc1-c1ccnc2c(C(=O)O)csc12 [compound 828]
40 | < 50 nM | 4.53 nM | Cc1nc2cnc(N3CC4(CC(N(C)C5CC5)C4)C3)c(C#N)c2c(=O)n1CCOc1ccc(Cl)cc1-c1ccnc2c(C(=O)O)csc12 [compound 829]
41 | < 50 nM | 12.8 nM | Cc1nc2cnc(N3CC4(CC(N(C)C5CC5)C4)C3)c(C#N)c2c(=O)n1CC#Cc1ccc(Cl)cc1-c1ccnc2c(C(=O)O)csc12 [compound 830]
42 | < 50 nM | 12.3 nM | Cc1cc(-c2cc(Cl)ccc2OCCn2c(C)nc3cnc(C4(C)CC4)c(C#N)c3c2=O)c2scc(C(=O)O)c2n1 [compound 831]
43 | < 50 nM | 31.6 nM | Cc1nc2cc(C(F)(F)F)c(N3CCN(C)CC3)c(C#N)c2c(=O)n1CCOc1ccc(Cl)cc1-c1ccnc2c(C(=O)O)csc12 [compound 834]
44 | < 50 nM | 29.3 nM | Cc1cc(-c2cc(Cl)ccc2OCCn2c(C)nc3cc(C(F)(F)F)c(N4CCN(C)CC4)c(C#N)c3c2=O)cc(C)n1 [compound 835]
45 | < 50 nM | 2.33 nM | Cc1cc(-c2cc(Cl)ccc2OCCn2c(C)nc3cc(C(F)(F)F)c(N4CCN(C)CC4)c(C#N)c3c2=O)c2sccc2n1 [compound 836]
46 | < 50 nM | 13.4 nM | Cc1nc2c(N3CCNCC(F)(F)C3)ncc(C#N)c2c(=O)n1CCOc1ccc(Cl)cc1-c1ccnc2c(C(=O)O)csc12 [compound 837]
47 | < 50 nM | 38.7 nM | Cc1nc2c(N3CCN(C)CC(F)(F)C3)ncc(C#N)c2c(=O)n1CCOc1ccc(Cl)cc1-c1ccnc2c(C(=O)O)csc12 [compound 838]
48 | < 50 nM | 29.6 nM | Cc1cc(-c2cc(Cl)ccc2OCCn2c(C)nc3cnc(C4(C(F)(F)F)CC4)c(C#N)c3c2=O)c2scc(C(=O)O)c2n1 [compound 839]
49 | < 50 nM | 10.4 nM | Cc1nc2cnc(N3CC4(CN(CC(F)(F)F)C4)C3)c(C#N)c2c(=O)n1CCOc1ccc(Cl)cc1-c1ccnc2c(C(=O)O)csc12 [compound 840]
50 | < 50 nM | 20.9 nM | Cc1nc2cnc(N3CCN(C)CC3)c(C#N)c2c(=O)n1CC#Cc1ccc(Cl)cc1-c1ccnc2c(C(=O)O)csc12 [compound 842]
51 | < 50 nM | 13.1 nM | Cc1nc2c(N3CCN(CCCC(F)(F)F)CC3)ncc(C#N)c2c(=O)n1CCOc1ccc(Cl)cc1-c1ccnc2c(C(=O)O)csc12 [compound 843]
